According to US9260461B2, “Water-soluble derivatives and prodrugs of acacetin and methods of making and using thereof” (Versitech Limited, priority 2014, dated 2016):
Like-named read-outs stand apart in the source and are kept apart here.

Tests used:
[1] = Solubility of the purified prodrugs versus parent compound acacetin; type: physicochemical
Description: Prodrug B: Light yellow solid. Yield 54%. C16H11O7PNa2 (408.21). EI-MS: m/z 387.04 [M+H—Na]^+. ^1H NMR (400 MHz, DMSO-d6): δ=12.90 (s, 1H), 8.04 (d, J=8.8 Hz, 2H), 7.10 (d, J=8.8 Hz, 2H), 7.02 (s, 1H), 6.98 (s, 1H), 6.60 (s, 1H), 3.89 (s, 3H) ppm.

isolated rat hearts = assay: Ischemia-reperfusion model in isolated rat hearts (Langendorff): coronary flow rate and contractile function; set-up: species or system SD rats; details: for coronary flow rate versus control: n=10-12
Method: Male SD rats (250-300 g) were anesthetized with phenobarbital (30 mg/kg, i.p.), and the heart were isolated and mounted to a Langendorff heart perfusion apparatus via the aorta and perfused with Krebs-Henseleit solution at 37° C. gassed with 95% O2 and 5% CO2. A saline-filled latex balloon connected by a polyethylene catheter to a pressure transducer was inserted into the left ventricle via an incision on the left atrium to measure left ventricular (LV) pressure. The balloon volume was adjusted and kept at a diastolic pressure of 0-5 mm Hg following insertion. ECG was recorded with two electrodes placed at the apex and the aorta. Signals were continuously monitored and stored on an IBM compatible PC computer using a multiple channels data acquisition system (Chengdu Instrument Ltd, Chendu, China).
A silk suture was placed around the left anterior descending artery (LAD) 2 mm distal to the left atrial appendage. A short length of polyethylene tube was placed over the suture on LAD as an occluder and the suture was pulled and the tube to ligate the coronary artery to induce regional ischemia. After a 20-min stabilization period, the hearts were treated by vehicle (DMSO control) or 0.3, 1, or 3 μM of the parent compound acacetin (0.3, 1, or 3 μM) for 10 min, and the LAD was ligated for 30-min. The ligation was released to allow for reperfusion for 2 h. Myocardial ischemia was confirmed by a decrease in left ventricular developed pressure and specific ST-T elevation on the ECG. At completing the reperfusion, the hearts were used to perform histological and/or molecular/biochemical analysis.
Hearts were excluded from the study if one of the following criteria was observed: (1) left ventricular developed pressure (LVP) was below 80 mmHg during baseline stabilization; (2) aortic wall was damaged during cannulation leading to a leakage during perfusion; or (3) hearts suffered from sustained irreversible arrhythmia during stabilization.
To determine the mechanisms of cardioprotection, the ischemia-reperfusion model was established in isolated rat hearts using accurate concentrations of the parent compound acacetin. The hearts perfused with the Langendorff system were exposed to 30 min ischemia (coronary ligation) followed by 120 min reperfusion (FIG. 5). After a 20 min stabilization period, the heart was treated with 0.3, 1, 3 μM acacetin, or equivolume vehicle (DMSO) for 10 min and then 30 min during ischemia.

myocyte apoptosis = assay: TUNEL staining of myocardial slices; set-up: species or system rat; details: 3 μM; vehicle 51.1±3.8%; n=5, P<0.01 vs. vehicle
Method: To observe the histological changes of the ischemia-reperfusion hearts, the left ventricle was sectioned into 2-3 mm slices and drop-fixed in 10% formalin solution. After adequate fixation (a minimum 48 hours in room temperature), tissue slices were transferred into 70% ethanol for long term storage at 4° C. Tissue paraffin infiltration is processed in the tissue processor (Leica, Asp200s).
When the program was complete, tissue slices with cut side down were transferred into a mold with paraffin to form a block. The tissue block was placed on a microtome (Leica, RM2125/RT, Germany) and cut into ˜5 μm slices. The tissue slices were float on the surface of 37° C. water bath until flat and then collected onto clean glass slides. […]
Terminal deoxynucleotidyl transferase-mediated dUTP nick end labeling (TUNEL) staining of myocardial slices was performed to detect apoptosis in myocardium using the TUNEL Apoptosis detection kit (Genscript, Cat. No L00297, Piscataway, N.J., USA) according to the manufacturer's instructions. […] For quantitative analysis, TUNEL-positive cells in 10 different sectors with approximately 100-200 cells/sector were counted with high-power magnification, Axioskop 2 plus with software Axioversion (Axiovs 20v.4.8.2.0). Apoptotic cells were expressed as percentage of total cells in the field.

[2] = background statement; cited from earlier work

For COc1ccc(-c2cc(=O)c3c(O)cc(O)cc3o2)cc1 [acacetin], the solubility ([1]; aqueous buffer, comparison with Tris solution pH=7.0, read-out: solubility (parent compound, compared with Prodrug A in Tris solution)) was < 0.2 µg/mL, the solubility ([1]; water, H2O, read-out: solubility (parent compound, compared with Prodrug B in H2O)) was < 0.1 µg/mL and the “coronary flow rate versus control” value (isolated rat hearts; 0.3 μM, before ischemia) was 108.9±2.3%. The “coronary flow rate versus control” value (isolated rat hearts; 1 μM, before ischemia) was 122.1±4.9%, the “increase of heart contractile function (left ventricular systolic pressure and +dP/dT)” value (isolated rat hearts; 3 μM, before ischemia, n=10, P<0.01) was “around 10 % of control” and the “coronary flow rate versus control” value (isolated rat hearts; 3 μM, before ischemia) was 125.8±6.6%. For the same compound, the “improvement of reduced coronary flow rate, difference vs. vehicle” value (isolated rat hearts; 3 μM, during ischemia and reperfusion, P<0.01 vs. vehicle) was 16-25%, the “prevention of decrease of heart contractile function induced by ischemia-reperfusion, difference vs. vehicle” value (isolated rat hearts; 3 μM, P<0.01 vs. vehicle) was 15-20% and the “TUNEL-positive nuclei (percentage cell number)” value (myocyte apoptosis) was 20.2±4.1%. For the same compound, the water solubility [2] was “water-insoluble”.
